# Values of other authors, collected in patent US20090062369A1, “USE OF SECRETORY PHOSPHOLIPASE A2 (SPLA2) INHIBITORS TO DECREASE SPLA2 LEVELS” (priority 2007, published 2009).
# Tested on: sPLA2
# Details: cited from earlier work
structure (smiles),measurement,value
"CCc1c(C(=O)C(N)=O)c2c(OCC(=O)O)cccc2n1Cc1ccccc1 [A-001, ((3-(2-Amino-1,2-dioxoethyl)-2-ethyl-1-(phenylmethyl)-1H-indol-4-yl)oxy)acetic acid]",mode of sPLA2 inhibition,competitively inhibits sPLA2
